For series [1], the target named is Recombinant human PARP (Homo sapiens, UniProt P09874). Put plainly: PARP enzyme activity inhibitory action. The conditions noted are these: PARP inhibitory activity IC50 (nM), 3H-NAD, activated DNA, 25° C. 15 min; average of 3 measurements.
Description: After incubation at 25° C. for 15 min., the reaction was quenched with 20% trichloroacetic acid, and the resulting acid insoluble fraction was adsorbed on a GF/B filter. The filter was washed several times with 5% trichloroacetic acid, and the radiation dose on the filter was measured by liquid scintillation counter.

Structures can show the parent of a compound that is named as a salt.

Recombinant human PARP, sequence (P09874 whole entry): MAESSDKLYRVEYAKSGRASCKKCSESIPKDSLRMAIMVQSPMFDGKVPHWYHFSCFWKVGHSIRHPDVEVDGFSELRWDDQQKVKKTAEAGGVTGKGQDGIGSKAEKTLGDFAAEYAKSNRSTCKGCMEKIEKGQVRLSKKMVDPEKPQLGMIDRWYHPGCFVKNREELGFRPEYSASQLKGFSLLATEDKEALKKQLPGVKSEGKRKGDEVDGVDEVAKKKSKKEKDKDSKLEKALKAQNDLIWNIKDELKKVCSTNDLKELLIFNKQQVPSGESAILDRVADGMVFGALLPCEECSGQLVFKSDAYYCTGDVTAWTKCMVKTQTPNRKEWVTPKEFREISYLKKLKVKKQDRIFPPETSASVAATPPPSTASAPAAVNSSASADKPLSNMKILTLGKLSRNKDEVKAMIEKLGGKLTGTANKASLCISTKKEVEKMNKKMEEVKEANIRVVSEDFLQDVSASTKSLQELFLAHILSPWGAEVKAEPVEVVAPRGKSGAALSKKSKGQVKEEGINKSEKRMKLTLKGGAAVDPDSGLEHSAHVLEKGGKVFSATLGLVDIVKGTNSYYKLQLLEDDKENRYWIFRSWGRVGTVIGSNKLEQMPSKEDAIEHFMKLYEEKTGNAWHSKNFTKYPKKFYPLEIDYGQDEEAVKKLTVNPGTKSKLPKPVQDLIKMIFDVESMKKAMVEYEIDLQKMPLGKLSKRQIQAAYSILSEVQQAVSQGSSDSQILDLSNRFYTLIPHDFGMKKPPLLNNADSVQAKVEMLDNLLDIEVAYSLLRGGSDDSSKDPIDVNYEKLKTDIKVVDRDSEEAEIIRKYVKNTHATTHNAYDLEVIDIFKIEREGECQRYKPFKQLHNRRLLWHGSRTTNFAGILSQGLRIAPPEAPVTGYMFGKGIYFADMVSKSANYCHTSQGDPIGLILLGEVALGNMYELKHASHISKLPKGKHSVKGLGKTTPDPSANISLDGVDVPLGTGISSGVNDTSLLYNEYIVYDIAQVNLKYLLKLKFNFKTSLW

In general, IC50 refers to the concentration at which inhibition is half-maximal. Regarding `Cc1cccc2c(=O)[nH]c([C@@H]3CCN4CCCC4C3)cc12` (single isomer, unassigned) [Example 225, 5-methyl-3-(octahydroindolizin-7-yl)-2H-isoquinolin-1-one ¾ water adduct], the IC50 in series [1] was 26 nM.

As for `Cc1cccc2c(=O)[nH]c([C@@H]3CCN4CCCC4C3)cc12` (single isomer, unassigned) [Example 226, 5-methyl-3-(octahydroindolizin-7-yl)-2H-isoquinolin-1-one ½ water adduct], the half-maximal inhibitory concentration (IC50) in series [1] came out at 31 nM.

A word on the melting point: it is the temperature, or range, at which the solid turns liquid. `CN(C)C1CCN(c2cc3ccccc3c(=O)[nH]2)CC1` [Example 3, 3-(4-dimethylaminopiperidine-1-yl)-2H-isoquinolin-1-one]: the melting point is 204 to 205 °C (dec.). The IC50 in series [1] came out at 70 nM.

For `CN1CCN(c2cc3ccccc3c(=O)[nH]2)CC1CO` (centres unmarked) [Example 4, 3-(3-hydroxymethyl-4-methylpiperazin-1-yl)-2H-isoquinolin-1-one], the IC50 in series [1] stood at 42 nM.

For `COc1cccc2c(=O)[nH]c(N3CCN(C)CC3)cc12` [Example 18, 5-methoxy-3-(4-methylpiperazin-1-yl)-2H-isoquinolin-1-one], the IC50 in series [1] came out at 56 nM.

As for `CN1CCN(c2cc3c(O)cccc3c(=O)[nH]2)CC1` [Example 19, 5-hydroxy-3-(4-methylpiperazin-1-yl)-2H-isoquinolin-1-one], the IC50 in series [1] amounted to 25 nM.

Take `CN1CCN(c2cc3c(F)cccc3c(=O)[nH]2)CC1` [Example 20, 5-fluoro-3-(4-methylpiperazin-1-yl)-2H-isoquinolin-1-one]: the melting point is 238 to 239 °C (dec.). The IC50 in series [1] worked out at 75 nM.

Take `CN1CCN(c2cc3c(Cl)cccc3c(=O)[nH]2)CC1` [Example 21, 5-chloro-3-(4-methylpiperazin-1-yl)-2H-isoquinolin-1-one]: the melting point was 230 to 231 °C (dec.). Also, the IC50 in series [1] came out at 82 nM.

Regarding `CN1CCN(c2cc3c(Br)cccc3c(=O)[nH]2)CC1` [Example 22, 5-bromo-3-(4-methylpiperazin-1-yl)-2H-isoquinolin-1-one], the melting point was 240 to 241 °C (dec.). Besides, the IC50 in series [1] stood at 96 nM.

Consider `CN(C)C1CCN(c2cc3c(F)cccc3c(=O)[nH]2)CC1` [Example 28, 5-fluoro-3-(4-dimethylaminopiperidin-1-yl)-2H-isoquinolin-1-one], for which the IC50 in series [1] worked out at 63 nM.

In the case of `CN(C)C1CCN(c2cc3c(Cl)cccc3c(=O)[nH]2)CC1` [Example 29, 5-chloro-3-(4-dimethylaminopiperidin-1-yl)-2H-isoquinolin-1-one], the melting point is 210 to 211 °C (dec.). Besides, in series [1], the IC50 turned out to be 65 nM.

Regarding `CN(C)CCCc1cc2ccccc2c(=O)[nH]1` [Example 85, 3-(3-(dimethylamino)propyl)-2H-isoquinolin-1-one], the IC50 in series [1] stood at 47 nM.

Take `O=c1[nH]c(C2CN3CCC2CC3)cc2ccccc12` (centres unmarked) [Example 86, 3-(1-azabicyclo[2.2.2]octan-3-yl)-2H-isoquinolin-1-one]: the IC50 in series [1] is 61 nM.

Take `Cc1cccc2c(=O)[nH]c(C3CCNCC3)cc12` [Example 93, 3-(piperidin-4-yl)-5-methyl-2H-isoquinolin-1-one hydrochloride]: the IC50 in series [1] amounted to 44 nM.

For the compound `CN1CCC(c2[nH]c(=O)c3ccccc3c2-c2ccccc2)CC1` [Example 98, 3-(1-methylpiperidin-4-yl)-4-phenyl-2H-isoquinolin-1-one ⅕ water adduct], the melting point is 258 to 260 °C (dec.). Further, the IC50 in series [1] turned out to be 87 nM.

`CN1CCC(c2cc3c(F)cccc3c(=O)[nH]2)CC1` [Example 106, 5-fluoro-3-(1-methylpiperidin-4-yl)-2H-isoquinolin-1-one]: the melting point was in the range of 220 to 222 °C. Moreover, the IC50 in series [1] is 40 nM.

The compound `COc1cccc2c(=O)[nH]c(C3CCN(C)CC3)cc12` [Example 107, 5-methoxy-3-(1-methylpiperidin-4-yl)-2H-isoquinolin-1-one] registered a melting point of 239 to 242 °C. Besides, in series [1], the IC50 is 45 nM.

In the case of `Cc1cccc2c(=O)[nH]c(C3CN4CCC3CC4)nc12` (centres unmarked) [Example 138, 2-(1-azabicyclo[2.2.2]octan-3-yl)-8-methyl-3H-quinazolin-4-one], the melting point was 230 to 231 °C (dec.). The IC50 in series [1] came to 58 nM.

In the case of `Cc1cccc2c(=O)[nH]c(CCCN(C)C)nc12` [Example 145, 8-methyl-2-[3-(dimethylamino)propyl]-3H-quinazolin-4-one], in series [1], the IC50 was determined as 39 nM.

In the case of `Cc1cccc2c(=O)[nH]c(N3CCN(C)C(CO)C3)cc12` (centres unmarked) [Example 153, 3-(3-hydroxymethyl-4-methylpiperazin-1-yl)-5-methyl-2H-isoquinolin-1-one], the IC50 in series [1] was 36 nM.

For the compound `Cc1cccc2c(=O)[nH]c(CCN3CCCCC3)nc12` [Example 165, 8-methyl-2-(2-piperidinoethyl)-3H-quinazolin-4-one], the IC50 in series [1] stood at 52 nM.

For the compound `Cc1cccc2c(=O)[nH]c(CCCN3CCCC3)nc12` [Example 176, 8-methyl-2-[3-(pyrrolidin-1-yl)propyl]-3H-quinazolin-4-one], in series [1], the IC50 was 44 nM.

`CN1CCC(c2cc3ccc(Cl)cc3c(=O)[nH]2)CC1` [Example 183, 7-chloro-3-(1-methylpiperidin-4-yl)-2H-isoquinolin-1-one]: the melting point is 253 to 255 °C. Moreover, in series [1], the IC50 was determined as 44 nM.

Consider `O=c1[nH]c(C2CCCN(Cc3ccccc3)C2)cc2ccccc12` (centres unmarked) [Example 191, 3-(1-benzylpiperidin-3-yl)-2H-isoquinolin-1-one], for which the melting point was in the range of 176 to 178 °C.

On to `CN1CCC=C(c2cc3ccccc3c(=O)[nH]2)C1` [Example 193, 3-(1-methyl-1,2,3,6-tetrahydropyridin-5-yl)-2H-isoquinolin-1-one], for which the melting point fell in the range of 214 to 216 °C.

Consider `O=c1[nH]c(N2CCNC(CO)C2)cc2ccccc12` (centres unmarked) [Example 194, 3-(3-hydroxymethylpiperazin-1-yl)-2H-isoquinolin-1-one], for which the melting point was > 120 °C (dec.).

For the compound `CCCN1CCN(c2cc3ccccc3c(=O)[nH]2)CC1CO` (centres unmarked) [Example 196, 3-(3-hydroxymethyl-4-propylpiperazin-1-yl)-2H-isoquinolin-1-one], the melting point fell in the range of 152 to 154 °C.

With `O=c1[nH]c(N2CCN(Cc3ccccc3)C(CO)C2)cc2ccccc12` (centres unmarked) [Example 197, 3-(4-benzyl-3-hydroxymethylpiperazin-1-yl)-2H-isoquinolin-1-one], the melting point lay in the range of 176 to 177 °C.

As to `O=c1[nH]c(N2CCNC(CO)C2)cc2c(Br)cccc12` (centres unmarked) [Example 198, 5-bromo-3-(3-hydroxymethylpiperazin-1-yl)-2H-isoquinolin-1-one], the melting point was > 230 °C (dec.).

As for `CN1CCN(c2cc3c(Br)cccc3c(=O)[nH]2)CC1CO` (centres unmarked) [Example 199, 5-bromo-3-(3-hydroxymethyl-4-methylpiperazin-1-yl)-2H-isoquinolin-1-one], the melting point is 200 to 202 °C.

Turning to `O=c1[nH]c(N2CCC(N3CCCCC3)CC2)cc2ccccc12` [Example 200, 3-(4-piperidinopiperidin-1-yl)-2H-isoquinolin-1-one], the melting point is > 200 °C (dec.).

On to `O=c1[nH]c(N2CCCC(CO)C2)cc2ccccc12` (centres unmarked) [Example 201, 3-(3-hydroxymethylpiperidin-1-yl)-2H-isoquinolin-1-one], for which the melting point lay within 143 to 144 °C.

Turning to `CN(C)C(=O)C1CCCN(c2cc3ccccc3c(=O)[nH]2)C1` (centres unmarked) [Example 202, 3-(3-(dimethylcarbamoyl)piperidin-1-yl)-2H-isoquinolin-1-one], the melting point fell in the range of 187 to 188 °C.

Regarding `CC(C)CN1CCN(c2cc3ccccc3c(=O)[nH]2)CC1CO` (centres unmarked) [Example 203, 3-(3-hydroxymethyl-4-isobutylpiperazin-1-yl)-2H-isoquinolin-1-one], the melting point lay in the range of 130 to 132 °C.

With `CN(C)CC1CCCN(c2cc3ccccc3c(=O)[nH]2)C1` (centres unmarked) [Example 206, 3-(3-(dimethylaminomethyl)piperidin-1-yl)-2H-isoquinolin-1-one], the melting point fell in the range of 141 to 143 °C.

On to `COCOc1ccc2cc(C3CCN(C)CC3)[nH]c(=O)c2c1` [Example 210, 7-methoxymethyloxy-3-(1-methylpiperidin-4-yl)-2H-isoquinolin-1-one], for which the melting point was 200 to 202 °C.

Turning to `Cc1cccc2c(=O)[nH]c(CCN3CCCCC3)cc12` [Example 218, 5-methyl-3-[2-(piperidin-1-yl)ethyl]-2H-isoquinolin-1-one], the IC50 in series [1] turned out to be 26 nM.

For `O=c1[nH]c(CCN2CCCCC2)cc2ccccc12` [Example 219, 3-[2-(piperidin-1-yl)ethyl]-2H-isoquinolin-1-one], the IC50 in series [1] came out at 63 nM.

Regarding `O=c1[nH]c(CCN2CCCC2)cc2ccccc12` [Example 220, 3-[2-(pyrrolidin-1-yl)ethyl]-2H-isoquinolin-1-one], the IC50 in series [1] stood at 77 nM.

Take `Cc1cccc2c(=O)[nH]c(CCN3CCCC3)cc12` [Example 221, 5-methyl-3-[2-(pyrrolidin-1-yl)ethyl]-2H-isoquinolin-1-one]: the IC50 in series [1] was found to be 42 nM.

For `Cc1cccc2c(=O)[nH]c(CCCN3CCCC3)cc12` [Example 222, 5-methyl-3-[3-(pyrrolidin-1-yl)propyl-1-yl]-2H-isoquinolin-1-one], the half-maximal inhibitory concentration (IC50) in series [1] was 36 nM.

On to `Cc1cccc2c(=O)[nH]c(CCCN3CCCCC3)cc12` [Example 228, 5-methyl-3-[3-(piperidin-1-yl)propyl]-2H-isoquinolin-1-one], for which the IC50 in series [1] turned out to be 72 nM.

Consider `Cc1cccc2c(=O)[nH]c(C3CCN(C)C3)cc12` (centres unmarked) [Example 248, 5-methyl-3-(1-methylpyrrolidin-3-yl)-2H-isoquinolin-1-one], for which, in series [1], the IC50 came out at 68 nM.

Consider `O=c1[nH]c(N2CCCCC2)cc2ccccc12` [Example Y-3010, reference compound], for which the IC50 in series [1] worked out at 5100 nM.

Regarding `O=c1[nH]c(N2CCN(CCO)CC2)cc2ccccc12` [Example Y-3079, reference compound], the IC50 in series [1] worked out at 79 nM.

On to `Cc1cccc2c(=O)[nH]c(N3CCN(C)CC3)nc12` [Pfizer, reference compound], for which the IC50 in series [1] is 240 nM.

Values taken from patent US20040176361A1, “Fused heterocyclic compound and medicinal use thereof” (priority 2001, published 2004).
